Test results from patent publication US10927128B2, “Oxadiazaspiro compounds for the treatment of drug abuse and addiction” (ESTEVE PHARMACEUTICALS, S.A., priority 2015, dated 2021).
Read-outs that look alike come from different tables or passages of the source.

Target: human σ1 receptor (Homo sapiens (Human), UniProt Q99720)
Assay: Human σ1 receptor radioligand assay
Type: binding
Protocol: Human σ1 Receptor Radioligand Assay
To investigate binding properties of test compounds to human σ1 receptor, transfected HEK-293 membranes and [^3H](+)-pentazocine (Perkin Elmer, NET-1056), as the radioligand, were used. The assay was carried out with 7 μg of membrane suspension, 5 nM of [^3H](+)-pentazocine in either absence or presence of either buffer or 10 μM Haloperidol for total and non-specific binding, respectively. Binding buffer contained Tris-HCl 50 mM at pH 8. Plates were incubated at 37° C. for 120 minutes. After the incubation period, the reaction mix was then transferred to Multiscreen HTS, FC plates (Millipore), filtered and plates were washed 3 times with ice-cold 10 mM Tris-HCL (pH7.4). Filters were dried and counted at approximately 40% efficiency in a MicroBeta scintillation counter (Perkin-Elmer) using EcoScint liquid scintillation cocktail

Chain of human σ1 receptor (Q99720 whole entry): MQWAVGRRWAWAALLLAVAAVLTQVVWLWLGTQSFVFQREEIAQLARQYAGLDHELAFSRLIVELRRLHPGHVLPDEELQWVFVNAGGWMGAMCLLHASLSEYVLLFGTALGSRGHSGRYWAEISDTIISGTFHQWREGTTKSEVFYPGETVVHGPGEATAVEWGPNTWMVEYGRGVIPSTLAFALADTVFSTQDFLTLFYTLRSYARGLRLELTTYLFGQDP

CCN1CC2(CCN(CCC(C)(C)C)CC2)O[C@@H](C)C1=O [Example 52, (S)-9-(3,3-dimethylbutyl)-4-ethyl-2-methyl-1-oxa-4,9-diazaspiro[5.5]undecan-3-one]
Ki: 100 to 500 nM

CCN1CC(C)OC2(CCN(CCc3ccccc3)CC2)C1 (centres unmarked) [Example 112, 4-Ethyl-2-methyl-9-phenethyl-1-oxa-4,9-diazaspiro[5.5]undecane]
Ki ([3H](+)-pentazocine radioligand, transfected HEK-293 membranes, read-out: Ki-σ1): < 100 nM
